# Target: T1, Aurora A kinase (Homo sapiens, UniProt O14965)
# T1 sequence (O14965 1-403): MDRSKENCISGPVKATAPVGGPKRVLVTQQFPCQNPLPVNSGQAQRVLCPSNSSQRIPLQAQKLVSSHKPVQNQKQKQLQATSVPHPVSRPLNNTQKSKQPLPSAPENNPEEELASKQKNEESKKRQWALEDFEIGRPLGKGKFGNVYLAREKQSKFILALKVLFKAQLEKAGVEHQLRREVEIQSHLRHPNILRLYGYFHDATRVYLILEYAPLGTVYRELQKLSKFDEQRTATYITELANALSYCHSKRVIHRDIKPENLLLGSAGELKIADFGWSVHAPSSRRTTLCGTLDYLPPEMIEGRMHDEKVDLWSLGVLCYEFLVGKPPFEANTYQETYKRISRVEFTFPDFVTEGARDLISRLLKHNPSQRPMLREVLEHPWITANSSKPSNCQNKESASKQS
# Assay: IC50 determination for inhibitors of Aurora A kinase (ELISA, GST-Histone H3 substrate)
# Format: biochemical
# Conditions: mutant Aur A kinase, 30 μM ATP, 40 minutes; read-out: IC50 Aurora A kinase inhibition
# Procedure: IC50 Determination for Inhibitors of Aurora A Kinase Assay Principle
# Aurora A is a serine threonine kinase involved in spindle assembly and chromosome segregation.
# The assay is a typically ELISA-type assay where substrate (GST-Histone H3) is coupled to the assay-plate and is phosphorylated by the kinase. Phosphorylation is detected by a mouse anti-Phosphopeptid mAb and an HRP-labeled anti-mouse pAb. The assay is validated for IC50-determination.
# Kinase activities were measured by Enzyme-Linked Immunosorbent Assay (ELISA): Maxisorp 384-well plates (Nunc) were coated with recombinant fusion protein comprising residues 1-15 of HistoneH3 fused to the N-terminus of Glutathione-S-Transferase. Plates were then blocked with a solution of 1 mg/mL I-block (Tropix cat# T2015—highly purified form of casein) in phosphate-buffered saline. […] After washing, substrate phosphorylation was detected by addition of anti-phospho-Histone H3 (Ser 10) 6G3 mAb (Cell Signaling cat #9706) and sheep anti-mouse pAb-HRP (Amersham cat# NA931V), followed by colorimetric development with TMB (3,3′,5,5′-tetramethylbenzidine from Kirkegaard & Perry Laboratories). After readout of the absorbance, IC50 values were calculated using a non-linear curve fit (XLfit software (ID Business Solution Ltd., Guilford, Surrey, UK))
row,IC50 [nM],SMILES
1,80,"COCCN1C(=O)C(C)(C)c2cc3nc(-c4cc(C)[nH]n4)[nH]c3cc21 [Example 1, 5-(2-Methoxy-ethyl)-7,7-dimethyl-2-(5-methyl-1H-pyrazol-3-yl)-5,7-dihydro-3H-imidazo[4,5-f]indol-6-one]"
2,40,"Cc1cc(-c2nc3cc4c(cc3[nH]2)N(CC(=O)Nc2ccc(F)cc2)C(=O)C4(C)C)n[nH]1 [Example 10, 2-[7,7-Dimethyl-2-(5-methyl-1H-pyrazol-3-yl)-6-oxo-6,7-dihydro-3H-imidazo[4,5-f]indol-5-yl]-N-(4-fluoro-phenyl)-acetamide]"

# Test system: HCT 116 cells
# Assay: CellTiter-Glo assay in HCT 116 cells (antiproliferative activity)
# Format: cell-based
# Conditions: 120 h, HCT 116 cells (human colon carcinoma), 5 days incubation
# Procedure: The CellTiter-Glo™ Luminescent Cell Viability Assay (Promega) is a homogeneous method of determining the number of viable cells in culture based on quantitation of the ATP present, which signals the presence of metabolically active cells.
# HCT 116 cells (human colon carcinoma, ATCC-No. CCl-247) were cultivated in RPMI 1640 medium with GlutaMAX™ I (Invitrogen, Cat-No. 61870-010), 2.5% Fetal Calf Serum (FCS, Sigma Cat-No. F4135 (FBS)); 100 Units/ml penicillin/100 μg/ml streptomycin (=Pen/Strep from Invitrogen Cat. No. 15140). For the assay the cells were seeded in 384 well plates, 1000 cells per well, in the same medium. The next day the test compounds were added in various concentrations ranging from 30 μM to 0.0015 μM (10 concentrations, 1:3 diluted). After 5 days the CellTiter-Glo™ assay was done according to the instructions of the manufacturer (CellTiter-Glo™ Luminescent Cell Viability Assay, from Promega). In brief: the cell-plate was equilibrated to room temperature for approximately 30 minutes and than the CellTiter-Glo™ reagent was added. The contents were carefully mixed for 15 minutes to induce cell lysis. After 45 minutes the luminescent signal was measured in Victor 2, (scanning multiwell spectrophotometer, Wallac).
# 1st. day: • Medium: RPMI 1640 with GlutaMAX™ I (Invitrogen, Cat-Nr. 61870), 5% FCS (Sigma Cat.-No. F4135), Pen/Strep (Invitrogen, Cat No. 15140). • HCT116 (ATCC-No. CCl-247): 1000 cells in 60 μl per well of 384 well plate (Greiner 781098, μClear-plate white) • After seeding incubate plates 24 h at 37° C., 5% CO2 2nd. Day: Induction (Treatment with Compounds, 10 Concentrations):
# In order to achieve a final concentration of 30 μM as highest concentration 3.5 μl of 10 mM compound stock solution were added directly to 163 μl media. Then step e) of the dilution procedure described below, was followed.
# In order to achieve the second highest to the lowest concentrations, a serial dilution with dilution steps of 1:3 was followed according to the procedure (a-e) as described here below: • a) for the second highest concentration add 10 μl of 10 mM stock solution of compound to 20 μl dimethylsulfoxide (DMSO) • b) dilute 8×1:3 (always 10 μl to 20 μl DMSO) in this DMSO dilution row (results in 9 wells with concentrations from 3333.3 μM to 0.51 μM) • c) dilute each concentration 1:47.6 (3.5 μl compound dilution to 163 μl media) • e) add 10 μl of every concentration to 60 μl media in the cell plate resulting in final concentration of DMSO: 0.3% in every well and resulting in 10 final concentration of compounds ranging from 30 μM to 0.0015 μM. • Each compound is tested in triplicate. • Incubate 120 h (5 days) at 37° C., 5% CO2
# • Add 30 μl CellTiter-Glo™ Reagent (prepared from CellTiter-Glo™ Buffer and CellTiter-Glo™ Substrate (lyophilized) purchased from Promega) per well, • shake 15 minutes at room temperature • incubate further 45 minutes at room temperature without shaking
# • Victor 2 scanning multiwell spectrophotometer (Wallac), Luminescence mode (0.5 sec/read, 477 nm) • Determine IC50 using a non-linear curve fit (XLfit software (ID Business Solution Ltd., Guilford, Surrey, UK))
row,SMILES,IC50 [nM]
1,"CCN(CC)CCN1C(=O)C(C)(C)c2cc3nc(-c4cc(C)[nH]n4)[nH]c3cc21 [Example 13, 5-(2-Diethylamino-ethyl)-7,7-dimethyl-2-(5-methyl-1H-pyrazol-3-yl)-5,7-dihydro-3H-imidazo[4,5-f]indol-6-one]",100 to 5000
2,"Cc1cc(-c2nc3cc4c(cc3[nH]2)N(CC(=O)NCc2ccc(F)cc2)C(=O)C4(C)C)n[nH]1 [Example 12, 2-[7,7-Dimethyl-2-(5-methyl-1H-pyrazol-3-yl)-6-oxo-6,7-dihydro-3H-imidazo[4,5-f]indol-5-yl]-N-(4-fluoro-benzyl)-acetamide]",100 to 5000
3,"Cc1cc(-c2nc3cc4c(cc3[nH]2)N(CC(=O)Nc2ccc(F)cc2)C(=O)C4(C)C)n[nH]1 [Example 10, 2-[7,7-Dimethyl-2-(5-methyl-1H-pyrazol-3-yl)-6-oxo-6,7-dihydro-3H-imidazo[4,5-f]indol-5-yl]-N-(4-fluoro-phenyl)-acetamide]",100 to 5000
4,"COc1cc(CNC(=O)CN2C(=O)C(C)(C)c3cc4nc(-c5cc(C)[nH]n5)[nH]c4cc32)cc(OC)c1 [Example 11, N-(3,5-Dimethoxy-benzyl)-2-[7,7-dimethyl-2-(5-methyl-1H-pyrazol-3-yl)-6-oxo-6,7-dihydro-3H-imidazo[4,5-f]indol-5-yl]-acetamide]",100 to 5000
5,"C=CCN1C(=O)C(C)(C)c2cc3nc(-c4cc(C)[nH]n4)[nH]c3cc21 [Example 3, 5-Allyl-7,7-dimethyl-2-(5-methyl-1H-pyrazol-3-yl)-5,7-dihydro-3H-imidazo[4,5-f]indol-6-one]",100 to 5000
6,"Cc1cc(-c2nc3cc4c(cc3[nH]2)C(C)(C)C(=O)N4CC#N)n[nH]1 [Example 2, [7,7-Dimethyl-2-(5-methyl-1H-pyrazol-3-yl)-6-oxo-6,7-dihydro-1H-imidazo[4,5-f]indol-5-yl]-acetonitrile]",100 to 5000

# Now from value to compound:
row,IC50 [nM],SMILES
1,100 to 5000,"CC1(C)C(=O)N(CCCN2CCOCC2)c2cc3nc(-c4cc(C(F)(F)F)n[nH]4)[nH]c3cc21 [Example 4, 7,7-Dimethyl-5-(3-morpholin-4-yl-propyl)-2-(5-trifluoromethyl-2H-pyrazol-3-yl)-5,7-dihydro-1H-imidazo[4,5-f]indol-6-one]"
2,5000 to 15000,"Cc1cc(-c2nc3cc4c(cc3[nH]2)C(C)(C)C(=O)N4CCN)n[nH]1 [Example 14, 5-(2-Amino-ethyl)-7,7-dimethyl-2-(5-methyl-1H-pyrazol-3-yl)-5,7-dihydro-1H-imidazo[4,5-f]indol-6-one]"
3,100 to 5000,"COCCN1C(=O)C(C)(C)c2cc3nc(-c4cc(C)[nH]n4)[nH]c3cc21 [Example 1, 5-(2-Methoxy-ethyl)-7,7-dimethyl-2-(5-methyl-1H-pyrazol-3-yl)-5,7-dihydro-3H-imidazo[4,5-f]indol-6-one]"
4,5830,"Cc1cc(-c2nc3cc4c(cc3[nH]2)N(CC(=O)N2CCOCC2)C(=O)C4(C)C)n[nH]1 [Example 9, 7,7-Dimethyl-2-(5-methyl-1H-pyrazol-3-yl)-5-(2-morpholin-4-yl-2-oxo-ethyl)-5,7-dihydro-3H-imidazo[4,5-f]indol-6-one]"
5,1240,"CCCc1cc(-c2nc3cc4c(cc3[nH]2)C(C)(C)C(=O)N4CCCN2CCOCC2)[nH]n1 [Example 6, 7,7-Dimethyl-5-(3-morpholin-4-yl-propyl)-2-(5-propyl-2H-pyrazol-3-yl)-5,7-dihydro-1H-imidazo[4,5-f]indol-6-one]"
6,100 to 5000,"Cc1cc(-c2nc3cc4c(cc3[nH]2)C(C)(C)C(=O)N4CCCN2CCOCC2)[nH]n1 [Example 5, 7,7-Dimethyl-2-(5-methyl-2H-pyrazol-3-yl)-5-(3-morpholin-4-yl-propyl)-5,7-dihydro-1H-imidazo[4,5-f]indol-6-one]"

# From patent publication US20090143375A1, “Tricyclic Lactam Derivatives, Their Manufacture and Use as Pharmaceutical Agents” (F. HOFFMANN-LA ROCHE AG, priority 2005, published 2009)
